Measurements published in patent publication US6462055B2, “Alpha-methylbenzyl-containing thiourea inhibitors of herpes viruses containing a phenylenediamine group” (Wyeth, priority 1998, dated 2002).
Values after ≈ are worked out from the molar mass of the structure shown.

Columns and labels:
[1] = system: HCMV recombinant mutant virus (RV145); test: microbe, parasite or virus in culture; type: cell-based, human cytomegalovirus; settings: for IC50: Human betaherpesvirus 5, read-out: IC50 ug/ml HCMV, HCMV
From the text: Microtiter plate assay. Ninety-six well plate cultures of human foreskin fibroblasts are infected in the presence of inhibitor compound with a HCMV recombinant mutant virus whose genome contains the prokaryotic beta-glucuronidase gene (Jefferson, R. A., S. M. Burgess, and D. Hirsh. 1986. Beta-glucuronidase from Escherichia coli as a gene fusion marker. Proc. Natl. Acad. Sci. USA 83:8447-8451) whose expression is controlled by a viral promoter. An example of such a virus is RV145 (Jones, T. R., V. P. Muzithras, and Y. Gluzman. 1991. Replacement mutagenesis of the human cytomegalovirus genome: US10 and US11 gene products are nonessential. J. Virol. 65:5860-5872). Since it is under the control of a viral promoter, beta-glucuronidase expression is an indirect indicator of growth and replication of HCMV in this assay. At 96 hours post-infection, the infected cell lysates are prepared (using 50 mM sodium phosphate [pH7.0]containing 0.1% Triton X-100 and 0.1% sarkosyl) and assayed for beta-glucuronidase activity using a substrate for the enzyme which when cleaved yields either a product which can be measured […] in a spectrophotometer or fluorescently in a microfluorimeter. Examples of such substrates are p-nitrophenyl-beta-D-glucuronide and methylumbelliferylglucuronide, respectively. The presence of an antiviral compound is indicated by the reduced expression of the HCMV genome resident beta-glucuronidase gene, compared to the absence of inhibitor. […] Data from this assay generated using varying amounts of inhibitor compound is also used to estimate the IC50 of an inhibitor compound.

[2] = system: VZV strain Ellen; test: VZV Antiviral (ELISA) Assay in human foreskin fibroblast cells; type: cell-based, varicella-zoster virus; settings: for IC50 / inhibition at 10 µg/mL: Human alphaherpesvirus 3, Fibroblast; for IC50: read-out: IC50 (ug/ml) VZV; for inhibition at 10 µg/mL: read-out: % inhibition 10 ug/ml VZV, 10 ug/ml
Protocol: For the generation of stock VZV to be used in the assay, VZV strain Ellen (ATCC #VR-1367) is used to infect human foreskin fibroblast (HFF) cells at low multiplicity (less than 0.1) and incubated overnight at 37° C. in 5% CO2. After the overnight incubation, the mixture of uninfected and VZV-infected HFF infected cells are then harvested and added to each well of 96-well plates (3.5×10^4 cells in 100 μl DMEM supplemented with 2% FBS) which contain test compound or the reference standard drug control (in 100 μl DMEM supplemented with 2% FBS per well). These cells are incubated for three days at 37° C. in 5% CO2, then fixed for ELISA assay. The primary antibody is murine anti-VZV glycoprotein II monoclonal antibody (Applied Biosystems, Inc. #13-145-100) and the secondary antibody is goat anti-mouse IgG linked to β-galactosidase. Thus the extent of viral replication is determined by assessing β-galactosidase activity by quantifying the generation of the 4-methyl umbelliferone fluorescent cleavage product after addition of the methyl umbelliferyl-β-D-galactoside (Sigma #M1633) substrate on a microfluorimeter (365 nm for excitation and 450 nm for emission). Antiviral activity (IC50) of the test compound is determined by comparing the flourescence obtained in absence of compound to that obtained in the presence of compound.

[3] = system: HSV-1; test: HSV Antiviral (ELISA) Assay in Vero cells; type: cell-based, herpes simplex virus type 1; settings: HSV-1, Vero cells; for IC50: Human alphaherpesvirus 1, read-out: IC50 (ug/ml) HSV
Protocol: Vero cells (ATCC #CCL-81) are plated on 96-well tissue culture plates at 3.5×10^4 cells per 100 μl tissue culture DMEM (Dulbeccos modified Eagle media) supplemented with 2% fetal bovine serum (FBS) in each well. After overnight incubation @ 37° C. (in 5% CO2) and 30 minutes prior to infection with HSV-1 (multiplicity of infection equal to 0.006), cells are either untreated, or treated with test compound (multiple concentrations) or reference standard drug control. After approximately 24 hours post-infection incubation @ 37° C. (in 5% CO2), cells are fixed for ELISA assay. The primary antibody is murine anti-HSV glycoprotein D monoclonal primary antibody and the secondary antibody is goat anti-mouse IgG linked to β-galactosidase. Thus the extent of viral replication is determined by assessing β-galactosidase activity by quantifying the generation of the 4-methyl umbelliferone fluorescent cleavage product after addition of the methyl umbelliferyl-β-D-galactoside (Sigma #M1633) substrate on a microfluorimeter (365 nm for excitation and 450 nm for emission). Antiviral activity (IC50) of the test compound is determined by comparing the flourescence obtained in absence of compound to that obtained in the presence of compound.

SMILES | IC50 ug/ml HCMV [1] [µg/mL] | IC50 (ug/ml) VZV [2] [µg/mL] | IC50 [2] [µg/mL] | also measured
COC(=O)c1cccc(C(=O)Nc2ccc(NC(=S)Nc3cc(Cl)c(OC)cc3OC)cc2)c1 [Example 208] | >10 | >10 |  | % inhibition 10 ug/ml VZV [2]: 25%
Nc1cccc(NC(=S)Nc2ccc(NC(=O)c3ccccc3F)cc2)c1 [Example 434] | 5 (≈ 13.1 µM) | >10 |  | % inhibition 10 ug/ml VZV [2]: 0%
O=C(Nc1ccc(NC(=S)Nc2cccc(CO)c2)cc1)c1ccccc1F [Example 476] | >10 | >10 |  | % inhibition 10 ug/ml VZV [2]: 21%
O=C(Nc1ccc(NC(=S)Nc2cc(N3CCCC3)cc(C(F)(F)F)c2)cc1)c1ccccc1F [Example 566] | >0.5 | 2 (≈ 3.98 µM) |  | 
CN(C)c1cc(NC(=S)Nc2ccc(NC(=O)c3ccccc3F)cc2)cc(C(F)(F)F)c1 [Example 567] |  |  | 2 (≈ 4.2 µM) | IC50 [1]: > 0.5 µg/mL
O=C(Nc1ccc(NC(=S)Nc2cc(N3CCOCC3)cc(C(F)(F)F)c2)cc1)c1ccccc1F [Example 568] | >0.5 | 2.3 (≈ 4.44 µM) |  | 
CN1CCN(c2cc(NC(=S)Nc3ccc(NC(=O)c4ccccc4F)cc3)cc(C(F)(F)F)c2)CC1 [Example 569] | >0.5 | 3 (≈ 5.64 µM) |  | 
O=C(Nc1ccc(NC(=S)NCCc2ccccc2)cc1)c1ccccc1F [Example 576] |  |  | 8 (≈ 20.3 µM) | IC50 [1]: > 0.5 µg/mL
CN(C)c1ccc(CNC(=S)Nc2ccc(NC(=O)c3ccccc3F)cc2)cc1C(F)(F)F [Example 610] | >0.5 | >10 |  | 
CN(C)c1cc(CCNC(=S)Nc2ccc(NC(=O)c3ccccc3F)cc2)cc(C(F)(F)F)c1 [Example 653] | >0.5 |  |  | IC50 (ug/ml) HSV [3]: >10 µg/mL
O=C(Nc1ccc(NC(=S)NCCSc2ccccc2)cc1)c1ccccc1F [Example 656] | >0.5 |  |  | IC50 (ug/ml) HSV [3]: 5 µg/mL (≈ 11.7 µM)
O=C(Nc1ccc(NC(=S)NCCOc2cc(Cl)cc(Cl)c2)cc1)c1ccccc1F [Example 664] | >0.5 |  |  | 
O=C(Nc1ccc(NC(=S)NCCOc2cccc(Cl)c2)cc1)c1ccccc1F [Example 666] | >0.5 |  |  | 
CC(NC(=S)Nc1ccc(NC(=O)c2cccc(Cl)c2)cc1)c1ccc(F)cc1 (stereo not shown) [Example 761] | 1.5 (≈ 3.51 µM) | >10 |  | 
CC(NC(=S)Nc1ccc(NC(=O)c2ccc(N(C)C)cc2)cc1)c1ccc(F)cc1 (stereo not shown) [Example 765] | 2.3 (≈ 5.27 µM) |  |  | 
COc1ccc(C(=O)Nc2ccc(NC(=S)Nc3cc(Br)c(OC)cc3OC)cc2)cc1 [Example 830, N-{4-[3-(5-Bromo-2,4-dimethoxy-phenyl)-thioureido]-phenyl}-4-methoxy-benzamide] |  |  | > 10 | IC50 [1]: > 10 µg/mL; inhibition at 10 µg/mL [2]: 16%
O=C(Nc1ccc(NC(=S)Nc2ccc(Br)c(Cl)c2)cc1)c1ccccc1F [Example 915, N-{4-[3-(4-Bromo-3-chloro-phenyl)-thioureido]-phenyl}-2-fluoro-benzamide] |  |  | > 10 | IC50 [1]: > 10 µg/mL; inhibition at 10 µg/mL [2]: 29%

SMILES | IC50 ug/ml HCMV [1] [µg/mL] | IC50 (ug/ml) VZV [2] [µg/mL] | IC50 [2] [µg/mL] | also measured
NC(=O)c1cccc(NC(=S)Nc2ccc(NC(=O)c3ccccc3F)cc2)c1 [Example 952, N-[4-[[[[3-(Aminocarbonyl)phenyl]amino]thioxomethyl]amino]phenyl]-2-fluoro-benzamide] |  |  | > 10 | IC50 [1]: > 10 µg/mL; inhibition at 10 µg/mL [2]: 22%
O=C(Nc1ccc(NC(=S)Nc2cccc(OC(F)(F)F)c2)cc1)c1ccccc1F [Example 961, 2-Fluoro-N-{4-[3-(3-trifluoromethoxy-phenyl)-thioureido]-phenyl}-benzamide] |  |  | > 10 | IC50 [1]: > 10 µg/mL; inhibition at 10 µg/mL [2]: 53%
O=C(Nc1ccc(NC(=S)Nc2cccc(S(=O)(=O)CCO)c2)cc1)c1ccccc1F [Example 969, 2-Fluoro-N-(4-{3-[3-(2-hydroxy-ethanesulfonyl)-phenyl]-thioureido}-phenyl)-benzamide] |  |  | > 10 | IC50 [1]: > 10 µg/mL; inhibition at 10 µg/mL [2]: 19%
CC(NC(=S)Nc1ccc(NC(=O)c2ccccc2C(F)(F)F)cc1)c1ccc(F)cc1 (stereo not shown) [Example 992, N-(4-{3-[1-(4-Fluoro-phenyl)-ethyl]-thioureido}-phenyl)-2-trifluoromethyl-benzamide] |  |  | 1.2 (≈ 2.6 µM) | IC50 [1]: 4 µg/mL (≈ 8.67 µM)
Nc1ccc(C(F)(F)F)cc1NC(=S)Nc1ccc(NC(=O)c2ccccc2F)cc1 [Example 999, N-{4-[3-(2-Amino-5-trifluoromethyl-phenyl)-thioureido]-phenyl}-2-fluoro-benzamide] |  |  | 9.4 (≈ 21 µM) | IC50 [1]: 4 µg/mL (≈ 8.92 µM)
Nc1ccc(F)cc1NC(=S)Nc1ccc(NC(=O)c2ccccc2F)cc1 [Example 1007, N-{4-[3-(2-Amino-5-fluoro-phenyl)-thioureido]-phenyl}-2-fluoro-benzamide] |  |  | > 10 | IC50 [1]: > 10 µg/mL
C[C@@H](NC(=S)Nc1ccc(NC(=O)c2ccccc2F)cc1)c1ccc(Cl)cc1 [Example 1014, N-(4-{3-[(1R)-1-(4-Chloro-phenyl)-ethyl]-thioureido}-phenyl)-2-fluoro-benzamide] |  |  | > 7.5 | IC50 [3]: > 10 µg/mL
C[C@H](NC(=S)Nc1ccc(NC(=O)c2ccccc2F)cc1)c1ccc(Cl)cc1 [Example 1015, N-(4-{3-[(1S)-1-(4-Chloro-phenyl)-ethyl]-thioureido}-phenyl)-2-fluorobenzamide] |  |  | 0.03 (≈ 0.0701 µM) | IC50 [3]: > 10 µg/mL
C[C@@H](NC(=S)Nc1ccc(NC(=O)c2ccccc2F)cc1)c1ccccc1 [Example 1016, 2-Fluoro-N-{4-[3-((1R)-1-phenyl-ethyl)-thioureido]-phenyl}-benzamide] |  |  | > 7.5 | IC50 [3]: > 10 µg/mL
CC(NC(=S)Nc1ccc(NC(=O)c2cccc(C#N)c2)cc1)c1ccc(F)cc1 (stereo not shown) [Example 1020, 3-Cyano-N-(4-{3-[1-(4-fluoro-phenyl)-ethyl]-thioureido}-phenyl)-benzamide] |  |  | 6.3 (≈ 15.1 µM) | IC50 [3]: > 10 µg/mL
CC(NC(=S)Nc1ccc(NC(=O)c2ccc(C#N)cc2)cc1)c1ccc(F)cc1 (stereo not shown) [Example 1022, 4-Cyano-N-(4-{3-[1-(4-fluoro-phenyl)-ethyl]-thioureido}-phenyl)-benzamide] |  |  | 1.5 (≈ 3.58 µM) | IC50 [3]: > 10 µg/mL
CC(NC(=S)Nc1ccc(NC(=O)c2ccccc2F)cc1)c1ccc(Br)cc1 (stereo not shown) [Example 1102] | 1.7 (≈ 3.6 µM) | 0.2 (≈ 0.423 µM) |  | 
C[C@H](NC(=S)Nc1ccc(NC(=O)c2ccc(F)cc2)cc1)c1ccc(Br)cc1 [Example 1103] | 3.4 (≈ 7.2 µM) | 0.47 (≈ 0.995 µM) |  | 
COc1ccccc1C(=O)Nc1ccc(NC(=S)N[C@@H](C)c2ccc(Br)cc2)cc1 [Example 1104] | 4.9 (≈ 10.1 µM) | 0.09 (≈ 0.186 µM) |  | 
COc1ccccc1C(=O)Nc1ccc(NC(=S)N[C@H](C)c2ccc(Br)cc2)cc1 [Example 1105] | 2.5 (≈ 5.16 µM) | >7.5 |  | 
C[C@H](NC(=S)Nc1ccc(NC(=O)c2nccc3ccccc23)cc1)c1ccc(Br)cc1 [Example 1107] | 8.1 (≈ 16 µM) | 0.05 (≈ 0.0989 µM) |  | 
C[C@H](NC(=S)Nc1ccc(NC(=O)c2cc3ccccc3cn2)cc1)c1ccc(Br)cc1 [Example 1108] | 2.3 (≈ 4.55 µM) | 0.05 (≈ 0.0989 µM) |  | 
